# Results reported in publication PMC3998711 (Nature chemical biology, 2014).
# Like-named read-outs stand apart in the source and are kept apart here.
# Experiments:
# MV4-11 AML cells = assay: MV4-11 proliferation assay; format: cell-based, human; conditions: read-out: IC50, proliferation of MV4-11 AML cells
# c-Myc [1] = assay: Western blot analysis of cellular c-Myc levels in MM.1S cells; format: cell-based, human; conditions: 6 h; for c-Myc levels (western blot): MM.1S cells, inhibitor 5 μM; for IC50: Homo sapiens, MM1.S, read-out: IC50 for c-Myc suppression
# BRD4(1) = BRD4(1) (Homo sapiens, UniProt O60885); assay: Isothermal titration calorimetry; format: binding; conditions: ITC, 15 °C, 50 mM HEPES, 150 mM NaCl
# [2] = system: MM.1S multiple myeloma cells; assay: MM.1S proliferation assay; format: cell-based; conditions: Homo sapiens, MM1.S, 72 h, read-out: IC50, MM.1S proliferation
# [3] = system: 12 primary human cell-based BioMAP systems; assay: BioMAP primary human cell disease model assay systems
# c-Myc [4] = assay: Western blot of c-Myc levels in Molm14 cell lines; format: cell-based, human; conditions: FLT3 inhibitor-sensitive and -resistant lines, 6 h
# PLK family = assay: Kinome-wide profiling, PLK family
# RSK family kinase = assay: Kinome-wide profiling, RSK family; conditions: read-out: Kds, RSK family; kinome-wide data
# [5] = target: first bromodomain of BRD4, BRD4(1) (Homo sapiens, UniProt O60885); assay: AlphaScreen assay; format: binding; conditions: described in words
smiles,measurement,setting,value
N#CC[C@H](C1CCCC1)n1cc(-c2ncnc3[nH]ccc23)cn1 [ruxolitinib],IC50,"MV4-11 AML cells; Homo sapiens, MV4-11, 72 h",~10000 nM
same,c-Myc levels (western blot),c-Myc [1],did not affect c-Myc levels
C[C@@H](Oc1cc(-n2cnc3ccc(CN4CCN(C)CC4)cc32)sc1C(N)=O)c1ccccc1C(F)(F)F [GSK-461364A],c-Myc levels (western blot),c-Myc [1],did not affect c-Myc levels
CC[C@@H]1C(=O)N(C)c2cnc(Nc3ccc(C(=O)NC4CCN(C)CC4)cc3OC)nc2N1C1CCCC1 [BI-2536],IC50,c-Myc [1],~100 nM
same,c-Myc levels (western blot),c-Myc [1],strong c-Myc down regulation
CN(c1ccccc1CNc1nc(Nc2ccc3c(c2)CC(=O)N3)ncc1C(F)(F)F)S(C)(=O)=O [PF-431396],Kd,BRD4(1); error of the fit,445 ± 42 nM
C[C@@H]1CCN(C(=O)CC#N)C[C@@H]1N(C)c1ncnc2[nH]ccc12 [tofacitinib],c-Myc levels (western blot),c-Myc [1],did not affect c-Myc levels
Cc1cnc(Nc2ccc(OCCN3CCCC3)cc2)nc1Nc1cccc(S(=O)(=O)NC(C)(C)C)c1 [TG-101348],IC50,[2],1000 to 3000 nM
same,"production of TNFα, MIG and IL-8",[3],inhibited
same,IC50,c-Myc [1],1000 to 3000 nM
same,c-Myc levels (western blot),c-Myc [1],strong c-Myc down regulation
COc1cc2c(cc1-c1c(C)noc1C)ncc1[nH]c(=O)n([C@H](C)c3ccccn3)c12 [I-BET],IC50,MV4-11 AML cells; 72 h,200 nM
Cc1sc2c(c1C)C(c1ccc(Cl)cc1)=N[C@@H](CC(=O)OC(C)(C)C)c1nnc(C)n1-2 [JQ1],IC50,MV4-11 AML cells; 72 h,28 nM
same,c-Myc expression in Molm14 cell lines,c-Myc [4],inhibits c-Myc expression with similar potencies
CC(C)CCN1c2nc(Nc3cc(F)c(O)c(F)c3)ncc2N(C)C(=O)C1C (stereo not shown) [BI-D1870],PLK family potencies lower than for BI-2536,PLK family,10–100 fold
same,Kd,"PLK family; read-out: Kds, PLK family, kinome-wide data",~10 nM
same,Kd,BRD4(1),3500 ± 170 nM
same,Kd,RSK family kinase,10 to 100 nM
same,AlphaScreen dose response IC50,[5],nanomolar
